Source: PubChem BioAssay (NCI)
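Cells were grown in 96-well plates and exposed to each compound for 48 hours at five concentrations; endpoints were interpolated linearly between bracketing concentrations, or set to the highest concentration if not reached. GI50 = concentration required for 50% inhibition of growth. TGI is the concentration that stops growth completely.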

Experiments:
Assay in all cases: NCI tumour cell line growth inhibition, 48 h
[1] = system: HS 578T breast
[2] = system: SW-620 colon
[3] = system: HCT-15 colon
[4] = system: HCT-116 colon
[5] = system: LOX IMVI melanoma
[6] = system: NCI/ADR-RES ovarian
[7] = system: MOLT-4 leukemia
[8] = system: DU-145 prostate
[9] = system: HCC-2998 colon
[10] = system: SK-OV-3 ovarian
[11] = system: SF-539 CNS
[12] = system: ACHN renal
[13] = system: HOP-62 NSCLC
[14] = system: TK-10 renal
[15] = system: A498 renal
[16] = system: SF-268 CNS
[17] = system: COLO 205 colon
[18] = system: SR leukemia
[19] = system: CAKI-1 renal
[20] = system: CCRF-CEM leukemia
[21] = system: PC-3 prostate
[22] = system: T-47D breast
[23] = system: KM12 colon
[24] = system: SN12C renal
[25] = system: SNB-75 CNS
[26] = system: NCI-H522 lung
[27] = system: M14 melanoma
[28] = system: RPMI-8226 leukemia
[29] = system: SK-MEL-2 melanoma
[30] = system: OVCAR-8 ovarian
[31] = system: IGROV1 ovarian
[32] = system: HOP-92 NSCLC
[33] = system: MDA-MB-435
[34] = system: UO-31 renal
[35] = system: SK-MEL-28 melanoma
[36] = system: OVCAR-4 ovarian
[37] = system: EKVX NSCLC
[38] = system: OVCAR-3 ovarian
[39] = system: A549 NSCLC
[40] = system: NCI-H226 lung
[41] = system: SF-295 CNS
[42] = system: BT-549 breast
[43] = system: HL-60(TB) leukemia
[44] = system: MALME-3M melanoma
[45] = system: MCF7 breast
[46] = system: 786-0 renal
[47] = system: OVCAR-5 ovarian
[48] = system: UACC-62 melanoma
[49] = system: U251 CNS
[50] = system: K-562 leukemia
[51] = system: UACC-257 melanoma
[52] = system: NCI-H23 lung
[53] = system: NCI-H460 lung
[54] = system: MDA-MB-231 breast
[55] = system: SNB-19 CNS

Work on `O=C1c2ccccc2-c2c1c1ccc([N+](=O)[O-])cc1c(=O)n2CCCN1CCOCC1` yielded a GI50 [1] of 5970 nM, a TGI [1] of over 56700 nM and a GI50 [2] of 160 nM. The TGI [2] was over 100000 nM, the GI50 [3] was 396 nM and the TGI [3] was over 100000 nM. For the same compound, the GI50 [4] was 85.1 nM, the TGI [4] was 1810 nM and the GI50 [5] was 81.3 nM. The TGI [5] was 338 nM, the GI50 [6] was 293 nM and the TGI [6] was 24800 nM. For the same compound, the GI50 [7] was 62.5 nM, the TGI [7] was over 100000 nM and the GI50 [8] was 84 nM. It also gave a TGI [8] of 3090 nM, a GI50 [9] of over 41000 nM and a TGI [9] of over 100000 nM. It also gave a GI50 [10] of 6570 nM, a TGI [10] of over 100000 nM and a GI50 [11] of 119 nM. For the same compound, the TGI [11] was 415 nM, the GI50 [12] was 128 nM and the GI50 [13] was 48.6 nM. The TGI [13] was 346 nM, the GI50 [14] was 25200 nM and the TGI [14] was over 100000 nM. It also gave a GI50 [15] of over 38800 nM, a TGI [15] of over 92400 nM and a GI50 [16] of 114 nM. It also gave a TGI [16] of over 100000 nM, a GI50 [17] of 7920 nM and a TGI [17] of over 100000 nM. The GI50 [18] was 13.9 nM, the TGI [18] was over 100000 nM and the GI50 [19] was 232 nM. It also gave a TGI [19] of over 100000 nM, a GI50 [20] of 22.4 nM and a TGI [20] of 121 nM. For the same compound, the GI50 [21] was 291 nM, the TGI [21] was over 100000 nM and the GI50 [22] was 97.1 nM. For the same compound, the TGI [22] was over 100000 nM, the GI50 [23] was 258 nM and the TGI [23] was over 100000 nM. The GI50 [24] was 333 nM, the TGI [24] was over 100000 nM and the GI50 [25] was 1010 nM. For the same compound, the TGI [25] was over 100000 nM, the GI50 [26] was 424 nM and the TGI [26] was over 100000 nM. For the same compound, the GI50 [27] was 122 nM, the TGI [27] was 495 nM and the GI50 [28] was 138 nM. For the same compound, the TGI [28] was 521 nM, the GI50 [29] was over 61200 nM and the TGI [29] was over 100000 nM. The GI50 [30] was 320 nM, the TGI [30] was over 100000 nM and the GI50 [31] was 238 nM. For the same compound, the TGI [31] was over 100000 nM, the TGI [32] was over 41100 nM and the GI50 [33] was 867 nM. It also gave a TGI [33] of over 100000 nM, a GI50 [34] of 195 nM and a TGI [34] of over 100000 nM. It also gave a GI50 [35] of over 100000 nM, a TGI [35] of over 100000 nM and a GI50 [36] of 776 nM. It also gave a TGI [36] of over 48300 nM, a GI50 [37] of 20900 nM and a TGI [37] of over 92700 nM. It also gave a GI50 [38] of 12400 nM, a TGI [38] of 29900 nM and a GI50 [39] of 9370 nM. The TGI [39] was over 100000 nM, the GI50 [40] was over 34300 nM and the TGI [40] was over 64800 nM. For the same compound, the GI50 [41] was 182 nM, the TGI [41] was 31800 nM and the GI50 [42] was 311 nM. The TGI [42] was 16700 nM, the GI50 [43] was 147 nM and the TGI [43] was over 100000 nM. It also gave a GI50 [44] of 268 nM, a TGI [44] of 24700 nM and a GI50 [45] of under 16.6 nM. The TGI [45] was over 100000 nM, the GI50 [46] was 135 nM and the TGI [46] was 2320 nM. For the same compound, the GI50 [47] was 13000 nM, the TGI [47] was over 100000 nM and the GI50 [48] was 403 nM. The TGI [48] was over 100000 nM, the GI50 [49] was 92.3 nM and the TGI [49] was 15800 nM. The GI50 [50] was 324 nM, the TGI [50] was over 100000 nM and the GI50 [51] was 19600 nM. The TGI [51] was over 100000 nM, the GI50 [52] was 160 nM and the GI50 [53] was 193 nM. For the same compound, the TGI [53] was over 100000 nM, the GI50 [54] was 24800 nM and the TGI [54] was over 87400 nM. It also gave a GI50 [55] of 378 nM and a TGI [55] of over 52600 nM.
